Assay results: PMC6855259, “Acylation-coupled lipophilic induction of polarisation (Acyl-cLIP): a universal assay for lipid transferase and hydrolase enzymes” (Chemical Science, 2019)
Counter-ions that a name gives are not always drawn. Like-named read-outs stand apart in the source and are kept apart here. Where a SMILES comes first, the peptide text is derived from it. Where no end group is shown, it is not given here.

Experiments:
HHAT [1] = molecular target: T1, HHAT (Homo sapiens, UniProt Q5VTY9); assay: Pilot HTS Acyl-cLIP screen of FDA-approved drugs, purified HHAT, stopped-assay conditions; assay type: biochemical; conditions: compounds screened at 25 μM
T1 construct: FLAG (C); His (C); made in house; host or cells: HEK293a cells stably overexpressing HHAT-FLAG-His

[2] = Detergent/BSA titration for polarised emission of Pal-SHH-FAM (fluorescence anisotropy); conditions: BSA titration with Pal-SHH-FAM; read-out: polarisation EC50
HHAT [3] = molecular target: T1, HHAT; assay: HHAT Acyl-cLIP assay with HHAT-P100(sol): SHH-FAM palmitoylation, dose-response and kinetics; assay type: biochemical
Procedure: Recombinant Protein Production
HHAT-enriched solubilised membrane fractions (HHAT-P100(sol)) were prepared as previously described,[4] with the following modifications. HEK293a cells overexpressing HHAT-FLAG-His (HEK293a HHAT+) were cultured, harvested by trypsinisation, and washed with PBS as previously described.[9] Cells (5 × 106) in DMEM/FBS (35 mL) were inoculated on sterilised CultiSphere S microcarriers (100 mg) in a spinner flask (Corning), and incubated as previously described. After 24 h, DMEM/FBS (15 mL) was added and cells incubated with stirring (~30 rpm), with addition on DMEM/FBS (50 mL) after 24 h. DMEM/FBS (50 mL) was refreshed every subsequent 24 h. After 5 days, microcarriers were collected by centrifugation (1,000 g, 1 min), and washed with PBS (25 mL). Microcarriers were digested with trypsin (3 mL) with visual monitoring by microscopy (5-15 min, see Supplementary Figure S11D) to release HEK293a HHAT+ cells, which were washed with DMEM/FBS (25 mL) and PBS […]
(25 mL). […]
25 kPSI through a Cell Disruptor (Constant Systems). Lysates were cleared by centrifugation (20,000 g, 30 min, 4 °C), and the supernatant passed through a HisTrap™ Fast Flow column (GE Healthcare). Bound protein was eluted with elution buffer (50 mM TRIS, 150 mM NaCl, 300 mM imidazole, pH 8.8), and concentrated to 2 mL in a Protein Concentrator PES (Pierce, 10,000 MWCO). The sample was cleared by centrifugation (20,000 g, 5 min, 4 °C) and purified using a S75 16/600 gel filtration column (Generon), eluting with storage buffer (50 mM TRIS, 150 mM NaCl, pH 7.4). Fractions containing protein were pooled, concentrated (5 mg/mL APT1, 4 mg/mL APT2), flash frozen, and stored at −80 °C.
Fluorescence measurements were recorded on an EnVision Xcite 2104 (PerkinElmer).
FAM-labelled peptides were measured using a FITC FP D505fp mirror module, FITC FP 480 nm excitation filter (30 nm bandwidth), FITC FP P-pol 535 nm first emission filter (40 nm bandwidth), and FITC FP S-pol 535 nm second emission filter (40 nm bandwidth). Continuous reaction monitoring was conducted using measurement height = 9.52 mm, 8 flashes/well, PMT gain = 319, and G-factor = 1.09. For the HHAT pilot screen, stopped-assay measurements were performed using measurement height = 9.52 mm, 60 flashes/well, PMT gain = 319, and G-factor = 1.09. The NMT acyl-cLIP assay continuous reaction monitoring was conducted using measurement height = 6.6 mm, 1 flash/well, PMT gain = 163, and G- […]
TAMRA-labelled peptides were measured using a BODIPY TMR FP D555fp mirror module, BODIPY TMR FP 531 nm excitation filter (25 nm bandwidth), BODIPY TMR FP P-pol 579 nm first emission filter (25 nm bandwidth), and BODIPY TMR FP S-pol 579 nm second emission filter (25 nm bandwidth). Continuous reaction monitoring was conducted using measurement height = 6.5 mm, 200 flashes/well, PMT gain = 255, and G-factor = 1.6.
HHAT-P100(sol) (450 µg/mL) in solubilisation buffer (20 mM HEPES, 350 mM NaCl, 1% (w/v) DDM, 5% glycerol, pH 7.3) was diluted 1:10 in SHH-FAM (2 µM) in reaction buffer (100 mM MES, 20 mM NaCl, 1 mM DTT, 1 mM TCEP, 0.1% (w/v) BSA, pH 6.5). The HHAT/SHH-FAM solution (12 µL/well) was dispensed into a black 384-well plate (Corning, 3575). The reaction was initiated by addition of Pal-CoA (7.5 µM) in reaction buffer (8 µL/well), and fluorescence readings collected every 1 min for 1 h. Under stopped-assay conditions, the reaction was halted by addition of SHH (220 µM) in reaction buffer (2 µL).
Detergents (2 mM) or BSA (0.15 mM) were tested for generation of polarised fluorescence from Pal-SHH-FAM or SHH-FAM (0.1 µM) in 100 mM MES, 20 mM NaCl. Detergent and BSA titrations were performed using 2-fold serial dilutions.
Small molecule inhibitors in DMSO were dispensed using an Echo 550 liquid handler (Labcyte), with a DMSO backfill volume of 50 nL. Substrate competitors SHH, SHH(FL), or Pal-SHH were serially diluted in reaction buffer (1:3) prior to addition to the HHAT/SHH-FAM […]
solution. […]

[4] = system: SHH acylation in HEK-293 SHH+ cells; assay: In-cell YnC15 tagging assay of SHH acylation; assay type: cell-based, human; conditions: inhibitors 20 µM, YnC15, AzTB ligation
Procedure: In-Cell YnC15 Tagging Assay
HEK293a SHH+ cells (500,000 cells/well) were plated in a 6-well plate in DMEM/FBS (3 mL/well) and cultured for 24 h. Cells were treated with inhibitors in DMSO (20 µM), two RUSKI-201 (20 µM) blind-positive controls and two DMSO (7.5 µL) blind-negative controls.
After 1 h, YnC15 (3 µL, 20 mM in DMSO) was added and cells cultured for a further 6 h before washing with PBS. Cells were lysed in PBS with Triton X-100 (1%), SDS (0.1% (w/v)) and Complete EDTA-free protease inhibitor cocktail (Roche Diagnostics). Cells were removed from plates by scraping, and lysates centrifuged (13,000 g, 10 min, 4 °C). The protein concentration of the supernatant was estimated using the DC Protein Assay (Bio-Rad) and adjusted to 1 mg/mL with lysis buffer. AzTB (1 µL, 10 mM in DMSO), CuSO4 (2 µL, 50 mM in H2O), TCEP (2 µL, 50 mM in H2O) and TBTA (1 µL, 10 mM in DMSO) were combined, and this mixture (6 µL) added to the lysate (100 µL). Samples were shaken at RT for 1 h, then proteins precipitated by addition of methanol (200 µL), chloroform (50 µL) and water (100 µL) followed by centrifugation (13,000 g, 5 min, 4 °C). The upper aqueous layer was removed without disturbing the protein layer at the interphase, methanol (0.5 mL) was added, and the precipitated proteins isolated by centrifugation (13,000 g, 10 min, 4 °C). Protein pellets were […]
washed twice with methanol, briefly air-dried and re-dissolved in PBS containing SDS (0.2% (w/v)) and DTT (0.1 mM) using sonication to a final concentration of 1 mg/mL.
10 µg of protein were separated on a 15% SDS-polyacrylamide gel. Fluorescence was recorded using a Typhoon imager (GE Healthcare; excitation laser: 532 nm, emission filter:
Proteins were transferred to a nitrocellulose membrane by wet transfer (100 V, 1 h), and membranes blocked with BSA (5% (w/v)) in TBS-T (50 mM TRIS, 150 mM NaCl, 0.1% Tween-20, pH 7.5) for 1 h at RT, followed by overnight incubation at 4°C with rabbit α-SHH (Santa Cruz Biotechnology; sc-9024; 1:200) in TBS-T with BSA (0.5% (w/v)) or mouse α-Tubulin (Santa Cruz Biotechnology; sc-8035; 1:200) in TBS-T with BSA (0.5% (w/v)). Membranes were washed with TBS-T (4 × 5 min) and incubated at RT for 1 h with HRP-conjugated Goat-α-mouse IgG (Advansta; 1:10,000) in TBS-T with BSA (0.5% (w/v)) or Goat-α-rabbit IgG (Advansta; 1:10,000) in TBS-T with BSA (0.5% (w/v)). Membranes were washed with TBS-T (4 × 5 min) and developed with Luminata Crescendo Western HRP substrate (Millipore) on a Fujifilm LAS-3000 imager. YnC15-labelled SHH band intensities were quantified using ImageJ 1.50i (National Institute of Health, USA).
HEK293a SHH+ cells (5,000 cells/well) were plated in a 96-well plate in DMEM/FBS […]
(50 µL/well) and cultured for 24 h. […]

[5] = HHAT-P100(sol) activity, SHH-FAM palmitoylation, 25 min reaction, four parameter fit, read-out: IC50 of HHAT inhibition
[6] = HHAT, SHH-FAM substrate competition, read-out: IC50 as competitive inhibitor of SHH-FAM palmitoylation

T1 sequence (Q5VTY9 whole entry): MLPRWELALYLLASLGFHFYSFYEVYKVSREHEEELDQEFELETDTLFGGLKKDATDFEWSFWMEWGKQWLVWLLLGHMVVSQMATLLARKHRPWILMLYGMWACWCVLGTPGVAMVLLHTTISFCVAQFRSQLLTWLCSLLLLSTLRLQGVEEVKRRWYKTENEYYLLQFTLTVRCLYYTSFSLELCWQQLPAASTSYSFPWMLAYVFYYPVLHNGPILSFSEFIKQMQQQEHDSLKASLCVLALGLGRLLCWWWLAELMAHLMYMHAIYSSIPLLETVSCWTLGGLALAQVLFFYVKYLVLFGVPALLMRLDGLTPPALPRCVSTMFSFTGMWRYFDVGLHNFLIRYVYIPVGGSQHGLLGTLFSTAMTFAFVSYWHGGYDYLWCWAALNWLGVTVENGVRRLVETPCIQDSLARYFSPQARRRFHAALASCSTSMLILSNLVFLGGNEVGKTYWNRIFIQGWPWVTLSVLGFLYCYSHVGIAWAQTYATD

Question: Which inhibition at 25 µM (HHAT [1]) does the source give for `Cc1cc(C2CCCCC2)n(O)c(=O)c1` [Ciclopirox] here?
Answer: > 80%

Question: Which EC50 [2] does the source give for bovine serum albumin [BSA] here?
Answer: 0.49 µM

Question: For `CCC(C)CNCC(=O)N1CCc2sccc2C1COc1cccc(C)c1` (centres unmarked) [RUSKI-43], which IC50 (HHAT [3]; [5]) is on record?
Answer: 17 µM

Question: Which inhibition at 25 µM (HHAT [1]) does the source give for `O=C1Cc2cc(CCN3CCN(c4nsc5ccccc45)CC3)c(Cl)cc2N1` [Ziprasidone·HCl] here?
Answer: > 80%

Question: For `CCCCCCCCCCCCCCCC(=O)N[C@@H](CS)C(=O)NCC(=O)N1CCC[C@H]1C(=O)NCC(=O)N[C@@H](CCCNC(=N)N)C(=O)NCC(=O)N[C@@H](Cc1ccccc1)C(=O)NCC(=O)N[C@@H](CCCCN)C(=O)N[C@@H](CCCNC(=N)N)C(=O)N[C@@H](CCCCN)C(N)=O` [Pal-SHH] (HELM PEPTIDE1{[CCCCCCCCCCCCCCCC(=O)[*:2]].C.G.P.G.R.G.F.G.K.R.K.[am]}$$$$V2.0), which IC50 (HHAT [3]; [6]) is on record?
Answer: 0.1 µM

Question: Which “inhibition of SHH acylation (YnC15 tagging) by in-gel fluorescence” value ([4]; IGF) does the source give for `CCC(C)CNCC(=O)N1CCc2sccc2C1c1cccc(C)n1` (centres unmarked) [RUSKI-201] here?
Answer: showed inhibition of SHH acylation

Question: And the “inhibition of SHH acylation assessed by increased molecular weight in anti-SHH blotting” value ([4]; α-SHH western blot)?
Answer: displayed inhibition

Question: And the inhibition at 25 µM (HHAT [1])?
Answer: > 80%

Question: What about the IC50 (HHAT [3]; [5]) of the same compound?
Answer: 2 µM

Question: With `CCCCCCCCCCCCCCCC(=O)SCCNC(=O)CCNC(=O)[C@H](O)C(C)(C)COP(=O)(O)OP(=O)(O)OC[C@H]1O[C@@H](n2cnc3c(N)ncnc32)[C@H](O)[C@@H]1OP(=O)(O)O` [Pal-CoA, palmitoyl-CoA] as the compound, how does the Vmax (HHAT [3]; Pal-CoA titration, SHH-FAM palmitoylation) read?
Answer: 0.081 pmol min^–1

Question: And the Km (HHAT [3]; Pal-CoA titration, SHH-FAM palmitoylation, initial velocity conditions, read-out: apparent KM)?
Answer: 0.17 µM

Question: What about the Vmax (HHAT [3]; Pal-CoA titration, initial velocity conditions) of the same compound?
Answer: 0.081 pmol/min

Question: With CGPGRGFGKRK-NH2 [SHH] as the compound, how does the IC50 (HHAT [3]; [6]) read?
Answer: 0.37 µM

Question: With `Oc1ccc(C2CNCCc3c2cc(O)c(O)c3Cl)cc1` (centres unmarked) [Fenoldopam Mesylate] as the compound, how does the inhibition at 25 µM (HHAT [1]) read?
Answer: > 80%

Question: Which IC50 (HHAT [3]; [6]) does the source give for “SHH(FL): N-terminal signalling domain of the mature full-length SHH protein (residues 24–193), expressed in E. coli without lipid modification” here?
Answer: 0.44 µM

Question: Which IC50 (HHAT [3]; [5]) does the source give for RUSKI-101 here?
Answer: 2.1 µM

Question: For RUSKI-41, which IC50 (HHAT [3]; [5]) is on record?
Answer: 5.7 µM
